The data set in a line: HILIC, Waters ACQUITY UPLC BEH Amide, 100 × 2.1 mm, 1.7 µm; A: water + 0.125% formic acid + 10 mM ammonium formate; B: 5% water + 95% acetonitrile + 0.125% formic acid + 10 mM ammonium formate; gradient (min/%B) 0/100 2/100 7.7/70 9.5/40 10.25/30 12.75/100 17/100. The following applies: stereoisomer not certain.
Turning to `COc1ccc(C=O)cc1OC` [3,4-Dimethoxybenzaldehyde], the LC retention time is 1.08 min.

Take `CCNC(C)Cc1ccc2c(c1)OCO2` (stereo not drawn) [3,4-Methylenedioxyethamphetamine]: the LC retention time came to 2.94 min. Then `NC(Cn1cccn1)C(=O)O` (stereo not drawn) [3-(1-Pyrazolyl)-alanine], with 7.54 min. `NC(CC(=O)O)c1ccc(O)cc1` (stereo not drawn) [3-Amino-3-(4-hydroxyphenyl)propionic acid]: the LC retention time stood at 7.42 min. Then `CC(CN)C(=O)O` (stereo not drawn) [3-Aminoisobutyric acid], with 7.4 min; and `Nc1cc(CC(N)C(=O)O)ccc1O` (stereo not drawn) [3-Aminotyrosine], with 8.06 min.

As to `NC(Cc1ccc(O)c(Cl)c1)C(=O)O` (stereo not drawn) [3-Chlorotyrosine], the LC retention time was determined as 7.13 min. Then `O=c1ccn(C2OC(CO)CC2O)c(=O)[nH]1` (stereo not drawn) [3-Deoxyuridine], with 2.87 min.

For the molecule `NC(N)=NCCC(=O)O` [3-Guanidinopropionic acid], the LC retention time was determined as 8.15 min. Consider `Nc1c(O)cccc1C(=O)O` [3-Hydroxyanthranilic acid], for which the LC retention time is 1.48 min. With `O=Cc1cccc(O)c1` [3-Hydroxybenzaldehyde] the figure was 1.18 min; with `CC(O)CC(=O)OC(CC(=O)[O-])C[N+](C)(C)C` (stereo not drawn) [3-Hydroxybutyrylcarnitine], 7.62 min; with `Nc1c(O)cccc1C(=O)CC(N)C(=O)O` (stereo not drawn) [3-Hydroxykynurenine], 7.35 min. With `O=C(O)Cc1cccc(O)c1` [3-Hydroxyphenylacetic acid] the figure was 1.45 min; with `NC(Cc1cccc(O)c1)C(=O)O` (stereo not drawn) [3-Hydroxyphenylalanine], 7.44 min; with `O=C(O)C1NCCC1O` (stereo not drawn) [3-Hydroxyproline], 8.17 min. With `O=C(O)CCCCCCC(O)CC(=O)O` (stereo not drawn) [3-Hydroxysebacic acid] the figure was 2.55 min; with `CCC(O)CC(=O)O` (stereo not drawn) [3-Hydroxyvaleric acid], 1.29 min; with `O=C(O)Cc1c[nH]c2ccccc12` [3-Indoleacetic acid], 1.33 min. Regarding `N#CCc1c[nH]c2ccccc12` [3-Indoleacetonitrile], the LC retention time amounted to 8.02 min. Then `O=C(O)CCc1c[nH]c2ccccc12` [3-Indolepropionic acid], with 1.28 min; and `CC(C)=CC(=O)NCC(=O)O` [3-Methylcrotonylglycine], with 2.95 min. With `Cn1c(=N)ccn(C2OC(CO)C(O)C2O)c1=O` (stereo not drawn) [3-Methylcytidine] the figure was 6.99 min; with `Cn1cncc1CC(N)C(=O)O` (stereo not drawn) [3-Methylhistidine], 9.41 min; with `CC1C(=O)Nc2ccccc21` (stereo not drawn) [3-Methyloxyindole], 1.07 min. Then `CSCCCN` [3-Methylthiopropylamine], with 5.16 min. In the case of `Cn1c(=O)ccn(C2OC(CO)C(O)C2O)c1=O` (stereo not drawn) [3-Methyluridine], the LC retention time came out at 1.12 min.

`NC(Cc1ccc(O)c([N+](=O)[O-])c1)C(=O)O` (stereo not drawn) [3-Nitrotyrosine]: the LC retention time came to 6.88 min. Then `CCCCCC(O)CC` (stereo not drawn) [3-Octanol], with 8.47 min.

As to `O=C(O)CCP(=O)(O)O` [3-Phosphonopropionic acid], the LC retention time is 8.59 min. With `OCc1cccnc1` [3-Pyridinemthanol] the figure was 1.41 min; with `C[Si](C)(C)CCC(=O)O` [3-Trimethylsilylpropionic acid], 5.64 min; with `NC(=O)NCCC(=O)O` [3-Ureidopropionic acid], 5.6 min.

With `CC(C)CCCC(C)C1CCC2C3CC=C4CC(OC(=O)NCCN(C)C)CCC4(C)C3CCC12C` (stereo not drawn) [3-beta-Cholest-5-en-3-yl [2-(dimethylamino)ethyl]carbamate], the LC retention time amounted to 2.34 min.

On to `O=c1c(-c2ccc(O)cc2)coc2cc(O)cc(O)c12` [4,5,7-Trihydroxyisoflavone], for which the LC retention time was determined as 1.27 min. Then `CC(=O)NCCCC(=O)O` [4-Acetamidobutyric acid], with 2.26 min; and `CC(=O)CCCC(=O)O` [4-Acetylbutyric acid], with 1.24 min.

Regarding `Nc1ccc(C(=O)O)cc1` [4-Aminobenzoic acid], the LC retention time came to 7.49 min. Then `NCC1CCC(C(=O)O)CC1` (stereo not drawn) [4-Aminomethylcyclohexanecarboxylic acid], with 6.6 min; and `Nc1ccc(O)cc1` [4-Aminophenol], with 1.34 min. Then `NC(N)=NCCCC(=O)O` [4-Guanidinobutyric acid], with 7.72 min. With `CCCCCCc1ccc(O)cc1O` [4-Hexylresorcinol] the figure was 1.63 min; with `CC(=O)CC(C)(C)O` [4-Hydroxy-4-methyl-2-pentanone], 4.88 min.

Turning to `Cc1cc(O)cc(=O)o1` [4-Hydroxy-6-methyl-2-pyrone], the LC retention time stood at 1.47 min. With `O=Cc1ccc(O)cc1` [4-Hydroxybenzaldehyde] the figure was 1.18 min. With `O=C(O)CNC(=O)c1ccc(O)cc1` [4-Hydroxyhippuric acid] the figure was 5.86 min; with `N#CC(O)c1ccc(O)cc1` (stereo not drawn) [4-Hydroxymandelonitrile], 2.63 min. Then `CCCCCC(O)C=CC=O` (stereo not drawn) [4-Hydroxynonenal], with 1.07 min; and `O=c1cc[nH]c2ccccc12` [4-Hydroxyquinoline], with 1.69 min; and `Cc1ncsc1CCO` [4-Methyl-5-thiazoleethanol], with 1.21 min. In the case of `Cc1cc(=O)oc2cc(O)ccc12` [4-Methylumbelliferone], the LC retention time worked out at 1.22 min.

`CC(=O)Oc1ccc2c(C)cc(=O)oc2c1` [4-Methylumbelliferyl acetate]: the LC retention time is 1.06 min.

For the molecule `O=[N+]([O-])c1cc[n+]([O-])c2ccccc12` [4-Nitroquinoline-N-oxide], the LC retention time was determined as 1.14 min. Then `Cc1ncc(CO)c(C(=O)O)c1O` [4-Pyridoxic acid], with 2.66 min; and `O=C(O)c1ccnc2ccccc12` [4-Quinolinecarboxylic acid], with 4.58 min; and `O=c1[nH]c(=S)ccn1C1OC(CO)C(O)C1O` (stereo not drawn) [4-Thiouridine], with 2.27 min. As to `C[N+](C)(C)CCCC(=O)O` [4-Trimethylammoniobutanoic acid], the LC retention time is 7.66 min. As for `CSCC1OC(n2cnc3c(N)ncnc32)C(O)C1O` (stereo not drawn) [5'-Methylthioadenosine], the LC retention time came to 2.49 min. Then `COCC1OC(n2cc(C)c(=O)[nH]c2=O)CC1O` (stereo not drawn) [5'-O-Methylthymidine], with 1.46 min; and `CC1CNC(=O)NC1=O` (stereo not drawn) [5,6-Dihydro-5-methyluracil], with 1.57 min.

As for `O=C1CCNC(=O)N1` [5,6-Dihydrouracil], the LC retention time is 1.77 min. Regarding `Cc1cc2nc[nH]c2cc1C` [5,6-Dimethylbenzimidazole], the LC retention time turned out to be 1.82 min. With `NC(=O)c1[nH]cnc1N` [5-Aminoimidazole-4-carboxamide] the figure was 4.18 min.
